Data on 17 compounds can be found in patent US6090834A, “Substituted oxazoles for the treatment of inflammation” (G.D. Searle & Co., priority 1998, dated 2000).

In test [1] the test system is carrageenan foot edema. Kind of test: Rat Carrageenan Foot Pad Edema Test. In kind it is in vivo, Male Sprague-Dawley rats. To be noted: oral, 3 h after carrageenan; for inhibition in vivo at 10 mg/kg: Rattus norvegicus, 10 mg/kg body weight, read-out: RAT PAW EDEMA % Inhibition @ 10 mg/kg body weight. On the procedure: Rat Carrageenan Foot Pad Edema Test
Male Sprague-Dawley rats were selected in each group so that the average body weight was as close as possible. Rats were fasted with free access to water for over sixteen hours prior to the test. […] One hour later a subplantar injection of 0.1 mL of 1% solution of carrageenan/sterile 0.9% saline was administered and the volume of the injected foot was measured with a displacement plethysmometer connected to a pressure transducer with a digital indicator. Three hours after the injection of the carrageenan, the volume of the foot was again measured.
On the technique in general: The carrageenan paw model is a standard test of acute inflammation.

The subject of test [2] is COX-1. As to the kind of experiment: COX-1 activity in vitro (PGE2 formed, ELISA). The format is biochemical, human or murine. To be noted: recombinant enzyme, arachidonic acid 10 μM, pH 8.0; read-out: COX-1 ID50. How it is done: (§1) Evaluation of COX I and COX II activity in vitro
(§2) The COX-2 inhibition activity of the compounds of this invention illustrated in the Examples was determined by the following methods. a. Preparation of recombinant COX baculoviruses
(§3) Recombinant COX-1 and COX-2 were prepared as described by Gierse et al, [J. Biochem., 305, 479-84 (1995)]. A 2.0 kb fragment containing the coding region of either human or murine COX-1 or human or murine COX-2 was cloned into a BamH1 site of the baculovirus transfer vector pVL1393 (Invitrogen) to generate the baculovirus transfer vectors for COX-1 and COX-2 in a manner similar to the method of D. R. O'Reilly et al (Baculovirus Expression Vectors: A Laboratory Manual (1992)). Recombinant baculoviruses were isolated by transfecting 4 μg of baculovirus transfer vector DNA into SF9 insect cells (2×10^8) along with 200 ng of linearized baculovirus plasmid DNA by the calcium phosphate method. See M. D. Summers and G. E. Smith, A Manual of Methods for Baculovirus vectors and Insect Cell Culture Procedures, Texas Agric. Exp. Station Bull. 1555 (1987). Recombinant viruses were purified by three rounds of plaque purification and high titer (10^7 -10^8 pfu/ml) stocks of virus were prepared. For large scale production, SF9 insect cells were infected in 10 liter fermentors (0.5×10^6 /ml) with the recombinant baculovirus stock such that the multiplicity of infection was 0.1. After 72 hours the cells were centrifuged and the cell pellet homogenized in Tris/Sucrose (50 mM: 25%, pH 8.0) containing 1% 3-[(3-cholamidopropyl)dimethylammonio]-1-propanesulfonate (CHAPS). The homogenate was centrifuged at 10,000×G for 30 minutes, and the resultant supernatant was stored at -80° C. before being assayed for COX activity. […]
(§4) b. Assay for COX-1 and COX-2 activity
(§5) COX activity was assayed as PGE2 formed/μg protein/time using an ELISA to detect the prostaglandin released. CHAPS-solubilized insect cell membranes containing the appropriate COX enzyme were incubated in a potassium phosphate buffer (50 mM, pH 8.0) containing epinephrine, phenol, and heme with the addition of arachidonic acid (10 μM). Compounds were pre-incubated with the enzyme for 10-20 minutes prior to the addition of arachidonic acid. Any reaction between the arachidonic acid and the enzyme was stopped after ten minutes at 37° C./room temperature by transferring 40 μl of reaction mix into 160 μl ELISA buffer and 25 μM indomethacin. The PGE2 formed was measured by standard ELISA technology (Cayman Chemical).

For test [3], the system named is COX-2. As to the kind of experiment: COX-2 activity in vitro (PGE2 formed, ELISA). In kind it is biochemical, human or murine. As to conditions: recombinant enzyme, arachidonic acid 10 μM, pH 8.0; read-out: COX II ID50. How it is done:
as §1, §2, §3, §4, §5
(In general: ELISA stands for enzyme-linked immunosorbent assay.)

Test [4] deals with hyperalgesic foot withdrawal. As to the kind of experiment: Rat Carrageenan-induced Analgesia Test. The format is in vivo, Male Sprague-Dawley rats. To be noted: oral, hyperalgesic foot withdrawal 3 h after carrageenan. How it is done: Rat Carrageenan-induced Analgesia Test
The analgesia test using rat carrageenan was performed with materials, reagents and procedures essentially as described by Hargreaves, et al., (Pain, 32, 77 (1988)). Male Sprague-Dawley rats were treated as previously described for the Carrageenan Foot Pad Edema test. Three hours after the injection of the carrageenan, the rats were placed in a special plexiglass container with a transparent floor having a high intensity lamp as a radiant heat source, positionable under the floor. After an initial twenty minute period, thermal stimulation was begun on either the injected foot or on the contralateral uninjected foot. A photoelectric cell turned off the lamp and timer when light was interrupted by paw withdrawal. The time until the rat withdraws its foot was then measured. The withdrawal latency in seconds was determined for the control and drug-treated groups, and percent inhibition of the hyperalgesic foot withdrawal determined.

The structures appear in SMILES notation. pIC50: −log10 of the molar value. Where only a bound is given, the exact number is not on record here.

Consider `CS(=O)(=O)c1ccc(-c2oc(C(c3ccccc3)c3ccccc3)nc2-c2ccc(F)cc2)cc1` [Example 10, 2-Diphenylmethyl-4-(4-fluorophenyl)-5-[4-methylsulfonylphenyloxazole]], for which, in test [1], the inhibition in vivo at 10 mg/kg stood at 18%.
Consider `COc1ccc(-c2oc(C(F)(F)F)nc2-c2ccc(S(C)(=O)=O)cc2)cc1F` [Example 70, 5-(3-fluoro-4-methoxyphenyl)-4-(4-methylsulfonylphenyl)-2-trifluoromethyloxazole], for which the pIC50 in test [2] was less than 4.00; in test [3], greater than 7.00. In test [1], the “RAT PAW EDEMA % Inhibition (1 @ 30 mg/kg body weight)” value amounted to 46%.
As for `CCOC(=O)Cc1nc(-c2ccc(F)cc2)c(-c2ccc(S(C)(=O)=O)cc2)o1` [Example 11], the inhibition in vivo at 10 mg/kg in test [1] was found to be 42%.
`CS(=O)(=O)c1ccc(-c2oc(COc3cccc(Cl)c3)nc2-c2ccc(F)cc2)cc1` [Example 30, 4-(4-fluorophenyl)-5-[4-(methylsulfonyl)phenyl]-2-(3-chlorophenoxy)methyloxazole]: the pIC50 was less than 4.00 in test [2] and greater than 7.00 in test [3]. Further, in test [1], the inhibition in vivo at 10 mg/kg worked out at 4%.
For the compound `COc1nc(-c2ccccc2)c(-c2ccc(S(N)(=O)=O)cc2)o1` [Example 55, 4-[2-methoxy-4-phenyl-5-oxazolyl]benzenesulfonamide], the pIC50 was 5.01 in test [2] and greater than 7.00 in test [3]. Also, the “RAT PAW EDEMA % Inhibition (1 @ 30 mg/kg body weight)” value in test [1] worked out at 37%.
`COc1ccc(Cc2nc(-c3ccc(F)cc3)c(-c3ccc(S(C)(=O)=O)cc3)o2)cc1` [Example 8, 4-(4-Fluorophenyl)-2-(4-methoxyphenyl)methyl-5-[4-methylsulfonylphenyl]oxazole]: the inhibition in vivo at 10 mg/kg in test [1] was 12%.
On to `CS(=O)(=O)c1ccc(-c2oc(COc3ccc(F)cc3)nc2-c2ccc(F)cc2)cc1` [Example 31, 4-(4-fluorophenyl)-5-[4-(methylsulfonyl)-phenyl]-2-[(4-fluorophenoxy)methyl]oxazole], for which the results for the pIC50 in test [2] and in test [3] were less than 4.00 and greater than 7.00, respectively. In test [1], the inhibition in vivo at 10 mg/kg worked out at 5%.
Consider `CS(=O)(=O)c1ccc(-c2oc(-c3ccccc3)nc2-c2ccc(F)cc2)cc1` [Example 3, 4-(4-Fluorophenyl)-5-[4-(methylsulfonyl)phenyl]-2-phenyloxazole], for which the pIC50 in test [2] was less than 5.00; in test [3], greater than 7.00. In addition, in test [1], the inhibition in vivo at 10 mg/kg was found to be 30%.
Turning to `CS(=O)(=O)c1ccc(-c2oc(CC(=O)O)nc2-c2ccc(F)cc2)cc1` [Example 16, 2-[4-(4-Fluorophenyl)-5-[4-(methylsulfonyl)phenyl]oxazol-2-yl]acetic acid], the inhibition in vivo at 10 mg/kg in test [1] is 26%.
In the case of `CS(=O)(=O)c1ccc(-c2oc(COc3ccccc3)nc2-c2ccc(F)cc2)cc1` [Example 28, 4-(4-fluorophenyl)-5-[4-(methylsulfonyl)-phenyl]-2-phenoxymethyloxazole], the inhibition in vivo at 10 mg/kg in test [1] worked out at 2%.
Turning to `CS(=O)(=O)c1ccc(-c2oc(CCc3ccccc3)nc2-c2ccc(F)cc2)cc1` [Example 1, 4-(4-fluorophenyl)-2-(2-phenylethyl)-5-(4-(methylsulfonyl)phenyl)oxazole], the pIC50 in test [2] was 5.16; in test [3], greater than 7.00. Moreover, in test [4], the “ANALGESIA % Inhibition @ 20 mg/kg body weight” value is recorded as 44%. For the same compound, the “RAT PAW EDEMA % Inhibition (* @ 20 mg/kg body weight)” value in test [1] (20 mg/kg body weight) is 41%.
On to `CC(C)(C)c1nc(-c2ccc(F)cc2)c(-c2ccc(S(C)(=O)=O)cc2)o1` [Example 7, 2-(Tert-butyl)-4-(4-fluorophenyl)-5-[4-(methylsulfonyl)phenyl]oxazole], for which the inhibition in vivo at 10 mg/kg in test [1] came out at 24%.
As to `CN(C)c1ccc(-c2nc(C(F)(F)F)oc2-c2ccc(S(N)(=O)=O)cc2)cc1` [Example 65, 4-[4-Dimethylaminophenyl-2-trifluoromethyl-5-oxazolyl]benzenesulfonamide], the pIC50 in test [2] and in test [3] was greater than 7.00 throughout.
Take `NS(=O)(=O)c1ccc(-c2nc(CC(=O)O)oc2-c2ccc(Cl)cc2)cc1` [Example 37, [4-(4-aminosulfonylphenyl)-5-(4-chlorophenyl)]-2-oxazoleacetic acid]: the pIC50 in test [2] was 5.47; in test [3], 5.15.
For the compound `NS(=O)(=O)c1ccc(-c2nc(CC(=O)O)oc2-c2ccc(F)c(Cl)c2)cc1` [Example 39, [4-(4-aminosulfonylphenyl)-5-(3-chloro-4-fluorophenyl)]-2-oxazoleacetic acid], the pIC50 in test [2] is less than 4.00; in test [3], 4.10.
The like results for `NS(=O)(=O)c1ccc(-c2oc(S)nc2-c2ccccc2)cc1` [Example 46, 4-[2-mercapto-4-phenyl-5-oxazolyl]benzenesulfonamide] were, in that order, 5.77 and 6.30.
With `NS(=O)(=O)c1ccc(-c2oc(CCC(=O)O)nc2-c2ccccc2)cc1` [Example 43, [5-(4-aminosulfonylphenyl)-4-phenyl]-2-oxazolepropionic acid], the pIC50 in test [2] is 5.64; in test [3] it was 5.51.
